The subject of the experiment is Raji (Burkitt's) lymphoma cells. Briefly: MTT assay for 4-day viability of Raji (Burkitt's) lymphoma cells. In kind it is cell-based. Conditions: Homo sapiens, 96 h, Raji (Burkitt's) lymphoma cells highly expressing MCT1, estimated EC50 given as bin, read-out: approximate potency (EC50). An excerpt:
Specific Examples of compounds of the invention, with estimated EC50 values determined using an MTT assay for 4-day viability of Raji (Burkitt's) lymphoma cells, a cell line known to highly express MCT1 and to be sensitive to small molecule MCT inhibitors,^4 are shown in Table 8. Assay protocols follow those described in the literature.^4 Other assays that are not described here but that are standard in the field, such as an assay for competitive inhibition of transport of radiolabeled lactic acid, an MCT substrate, may also be useful in establishing mechanism of action of these compounds.
Usually EC50 stands for the concentration giving half of the maximal effect. `Cc1cc(=O)c2c(OCCCO)cc(Oc3ccnc4ccccc34)cc2o1` [Example 1, 5-(3-hydroxypropoxy)-2-methyl-7-(quinolin-4-yloxy)-4H-chromen-4-one]: the EC50 is 1000 to 10000 nM.

Regarding `Cc1cc(=O)c2c(OCCCO)cc(OCc3cccc4ccccc34)cc2o1` [Example 2, 5-(3-hydroxypropoxy)-2-methyl-7-(naphthalen-1-ylmethoxy)-4H-chromen-4-one], the EC50 was 1000 to 10000 nM.

On to `Cc1cc(=O)c2c(OCCCCO)cc(OCc3cccc4ccccc34)cc2o1` [Example 3, 5-(4-hydroxybutoxy)-2-methyl-7-(naphthalen-1-ylmethoxy)-4H-chromen-4-one], for which the half-maximal effective concentration (EC50) was 1000 to 10000 nM.

For `Cc1cc(=O)c2c(OCC(O)CO)cc(Oc3ccnc4ccccc34)cc2o1` (stereo not shown) [Example 4, 5-(2,3-dihydroxypropoxy)-2-methyl-7-(quinolin-4-yloxy)-4H-chromen-4-one], the EC50 is at least 10000 nM.

As for `CC(C)c1cc(=O)c2c(OCCCCO)cc(OCc3cccc4ccccc34)cc2o1` [Example 5, 5-(4-hydroxybutoxy)-2-isopropyl-7-(naphthalen-1-ylmethoxy)-4H-chromen-4-one], the EC50 is 100 to 1000 nM.

With `CC(C)c1cc(=O)c2c(OCCCO)cc(OCc3ccnc4ccccc34)cc2o1` [Example 6, 5-(3-hydroxypropoxy)-2-isopropyl-7-(quinolin-4-ylmethoxy)-4H-chromen-4-one], the EC50 is 100 to 1000 nM.

With `CC(C)c1cc(=O)c2c(OCCCO)cc(OCc3cccc4ccccc34)cc2o1` [Example 7, 5-(3-hydroxypropoxy)-2-isopropyl-7-(naphthalen-1-ylmethoxy)-4H-chromen-4-one], the EC50 was 100 to 1000 nM.

Turning to `CC(C)c1cc(=O)c2c(OCc3ccccc3CO)cc(OCc3cccc4ccccc34)cc2o1` [Example 8, 5-((2-(hydroxymethyl)benzyl)oxy)-2-isopropyl-7-(naphthalen-1-ylmethoxy)-4H-chromen-4-one], the EC50 was at most 100 nM.

For `CC(C)c1cc(=O)c2c(OCc3ccccc3CO)cc(Oc3ccnc4ccccc34)cc2o1` [Example 9, 5-((2-(hydroxymethyl)benzyl)oxy)-2-isopropyl-7-(quinolin-4-yloxy)-4H-chromen-4-one], the EC50 was at most 100 nM.

For the molecule `CC(C)c1cc(=O)c2c(OCc3ccccc3CO)cc(OCc3cccnc3C(F)(F)F)cc2o1` [Example 10, 5-((2-(hydroxymethyl)benzyl)oxy)-2-isopropyl-7-((2-(trifluoromethyl)pyridin-3-yl)methoxy)-4H-chromen-4-one], the EC50 was at most 100 nM.

Turning to `CC(C)c1cc(=O)c2c(OCc3ccccc3CO)cc(Oc3ncccc3C(F)(F)F)cc2o1` [Example 11, 5-((2-(hydroxymethyl)benzyl)oxy)-2-isopropyl-7-((3-(trifluoromethyl)pyridin-2-yl)oxy)-4H-chromen-4-one], the EC50 was at most 100 nM.

Regarding `CC(C)c1cc(=O)c2c(OCc3ccccc3CO)cc(OCc3cccc(C(F)(F)F)c3)cc2o1` [Example 12, 5-((2-(hydroxymethyl)benzyl)oxy)-2-isopropyl-7-((3-(trifluoromethyl)benzyl)oxy)-4H-chromen-4-one], the EC50 was at most 100 nM.

In the case of `CC(C)c1cc(=O)c2c(OCc3ccccc3CO)cc(OCc3ccccn3)cc2o1` [Example 13, 5-((2-(hydroxymethyl)benzyl)oxy)-2-isopropyl-7-(pyridin-2-ylmethoxy)-4H-chromen-4-one], the EC50 is at most 100 nM.

In the case of `CC(C)c1cc(=O)c2c(OCc3ccccc3CO)cc(OCc3cccnc3)cc2o1` [Example 14, 5-((2-(hydroxymethyl)benzyl)oxy)-2-isopropyl-7-(pyridin-3-ylmethoxy)-4H-chromen-4-one], the EC50 is at most 100 nM.

On to `CC(C)c1cc(=O)c2c(OCc3ccccc3CO)cc(OCc3ccncc3)cc2o1` [Example 15, 5-((2-(hydroxymethyl)benzyl)oxy)-2-isopropyl-7-(pyridin-4-ylmethoxy)-4H-chromen-4-one], for which the EC50 is 100 to 1000 nM.

Take `CC(C)c1cc(=O)c2c(OCc3ccccc3CO)cc(OCc3cncc(C(F)(F)F)c3)cc2o1` [Example 16, 5-((2-(hydroxymethyl)benzyl)oxy)-2-isopropyl-7-((5-(trifluoromethyl)pyridin-3-yl)methoxy)-4H-chromen-4-one]: the EC50 was at most 100 nM.

In the case of `CC(C)c1cc(=O)c2c(OCc3ccccc3CO)cc(Oc3ccncc3C(F)(F)F)cc2o1` [Example 17, 5-((2-(hydroxymethyl)benzyl)oxy)-2-isopropyl-7-((3-(trifluoromethyl)pyridin-4-yl)oxy)-4H-chromen-4-one], the concentration for a half-maximal effect (EC50) is at most 100 nM.

As for `CC(C)c1cc(=O)c2c(OCc3ccccc3CO)cc(OCc3cncs3)cc2o1` [Example 18, 5-((2-(hydroxymethyl)benzyl)oxy)-2-isopropyl-7-(thiazol-5-ylmethoxy)-4H-chromen-4-one], the EC50 was 100 to 1000 nM.

With `CC(C)c1cc(=O)c2c(OCc3ccccc3CO)cc(OCc3cccc4cccnc34)cc2o1` [Example 19, 5-((2-(hydroxymethyl)benzyl)oxy)-2-isopropyl-7-(quinolin-8-ylmethoxy)-4H-chromen-4-one], the EC50 is at most 100 nM.

Regarding `CC(C)c1cc(=O)c2c(OCc3ccccc3CO)cc(OCc3ccc4ccccc4n3)cc2o1` [Example 20, 5-((2-(hydroxymethyl)benzyl)oxy)-2-isopropyl-7-(quinolin-2-ylmethoxy)-4H-chromen-4-one], the EC50 is at most 100 nM.

With `CC(C)c1cc(=O)c2c(OCc3ccccc3CO)cc(OCc3ccc4ncccc4c3)cc2o1` [Example 21, 5-((2-(hydroxymethyl)benzyl)oxy)-2-isopropyl-7-(quinolin-6-ylmethoxy)-4H-chromen-4-one], the EC50 was 100 to 1000 nM.

Take `O=c1cc(C2CC2)oc2cc(OCc3cccc4ccccc34)cc(OCc3ccccc3CO)c12` [Example 22, 2-cyclopropyl-5-((2-(hydroxymethyl)benzyl)oxy)-7-(naphthalen-1-ylmethoxy)-4H-chromen-4-one]: the EC50 was 100 to 1000 nM.

`O=c1cc(C2CC2)oc2cc(OCc3cccnc3C(F)(F)F)cc(OCc3ccccc3CO)c12` [Example 23, 2-cyclopropyl-5-((2-(hydroxymethyl)benzyl)oxy)-7-((2-(trifluoromethyl)pyridin-3-yl)methoxy)-4H-chromen-4-one]: the concentration for a half-maximal effect (EC50) was at most 100 nM.

`CC(C)c1cc(=O)c2c(OCc3ccccc3CO)cc(OCc3ccnc4ccccc34)cc2o1` [Example 24, 5-((2-(hydroxymethyl)benzyl)oxy)-2-isopropyl-7-(quinolin-4-ylmethoxy)-4H-chromen-4-one]: the EC50 is at most 100 nM.

`CC(C)c1cc(=O)c2c(OCc3ccccc3CO)cc(OCc3cnc(Cl)c4ccccc34)cc2o1` [Example 25, 7-((1-chloroisoquinolin-4-yl)methoxy)-5-((2-(hydroxymethyl)benzyl)oxy)-2-isopropyl-4H-chromen-4-one]: the EC50 was at most 100 nM.

Turning to `O=c1cc(-c2ccccc2)oc2cc(Oc3ccnc4ccccc34)cc(OCCCO)c12` [Example 26, 5-(3-hydroxypropoxy)-2-phenyl-7-(quinolin-4-yloxy)-4H-chromen-4-one], the EC50 is 1000 to 10000 nM.

For `O=c1cc(-c2ccccc2)oc2cc(Oc3ccnc4ccccc34)cc(OCC(O)CO)c12` (stereo not shown) [Example 27, 5-(2,3-dihydroxypropoxy)-2-phenyl-7-(quinolin-4-yloxy)-4H-chromen-4-one], the EC50 was at least 10000 nM.

Regarding `O=c1cc(-c2ccccc2)oc2cc(OCc3cccc4ccccc34)cc(OCCCO)c12` [Example 28, 5-(3-hydroxypropoxy)-7-(naphthalen-1-ylmethoxy)-2-phenyl-4H-chromen-4-one], the EC50 was 1000 to 10000 nM.

As to `O=c1cc(-c2ccccc2)oc2cc(OCc3cccc4ccccc34)cc(OCCCCO)c12` [Example 29, 5-(4-hydroxybutoxy)-7-(naphthalen-1-ylmethoxy)-2-phenyl-4H-chromen-4-one], the EC50 was 1000 to 10000 nM.

As to `CC(C)c1cc(=O)c2c(OCCCCO)cc(OCc3ccnc4ccccc34)cc2o1` [Example 30, 5-(4-hydroxybutoxy)-2-isopropyl-7-(quinolin-4-ylmethoxy)-4H-chromen-4-one], the EC50 was at most 100 nM.

With `Cc1cc(=O)c2c(OCc3ccccc3CO)cc(Oc3ccnc4ccccc34)cc2o1` [Example 31, 5-((2-(hydroxymethyl)benzyl)oxy)-2-methyl-7-(quinolin-4-yloxy)-4H-chromen-4-one], the concentration giving a half-maximal response (EC50) is 100 to 1000 nM.

For `CC(C)c1cc(=O)c2c(OCc3ccccc3CO)cc(Oc3cc(C(F)(F)F)ccn3)cc2o1` [Example 32, 5-((2-(hydroxymethyl)benzyl)oxy)-2-isopropyl-7-((4-(trifluoromethyl)pyridin-2-yl)oxy)-4H-chromen-4-one], the concentration giving a half-maximal response (EC50) was 100 to 1000 nM.

In the case of `CC(C)c1cc(=O)c2c(OCc3ccccc3CO)cc(OCc3cncnc3)cc2o1` [Example 33, 5-((2-(hydroxymethyl)benzyl)oxy)-2-isopropyl-7-(pyrimidin-5-ylmethoxy)-4H-chromen-4-one], the EC50 is 100 to 1000 nM.

As for `CC(C)c1cc(=O)c2c(OCCCCO)cc(COc3cccc4ccccc34)cc2o1` [Example 35, 5-(4-hydroxybutoxy)-2-isopropyl-7-((naphthalen-1-yloxy)methyl)-4H-chromen-4-one], the concentration for a half-maximal effect (EC50) was 1000 to 10000 nM.

Regarding `CC(C)c1cc(=O)c2c(CCCCO)cc(OCc3cccc4ccccc34)cc2o1` [Example 36, 5-(4-hydroxybutyl)-2-isopropyl-7-(naphthalen-1-ylmethoxy)-4H-chromen-4-one], the EC50 is 1000 to 10000 nM.

As to `CC(C)c1cc(=O)c2c(CCCCCO)cc(OCc3cccc4ccccc34)cc2o1` [Example 37, 5-(5-hydroxypentyl)-2-isopropyl-7-(naphthalen-1-ylmethoxy)-4H-chromen-4-one], the EC50 is 1000 to 10000 nM.

Take `CC(C)c1cc(=O)c2c(-c3cccc(CCO)c3)cc(OCc3cccc4ccccc34)cc2o1` [Example 38, 5-(3-(2-hydroxyethyl)phenyl)-2-isopropyl-7-(naphthalen-1-ylmethoxy)-4H-chromen-4-one]: the EC50 was 1000 to 10000 nM.

The record behind these values is patent publication US9994555B2, “Chromenone inhibitors of monocarboxylate transporters” (THE SCRIPPS RESEARCH INSTITUTE, priority 2015, dated 2018).
